Values quoted from earlier work, collected in publication PMC7395068, “The evolution of strategies to minimise the risk of human drug-induced liver injury (DILI) in drug discovery and development” (Archives of Toxicology, 2020).
Where a name gives a salt, the structure may show the parent alone. Read-outs that look alike come from different tables or passages of the source. *1 amine or outer side, *2 acyl side, *3 side chain or, on linkers, in order; H or OH if unused. Where a SMILES comes first, the peptide text is derived from it. Bridges are numbered along the chain shown (N, C = ends). [ ]: non-standard residue; d: D form. The star is where a group is joined. pTerphenylCO(4''-OnC5H11) = CCCCCOc1ccc(-c2ccc(-c3ccc(C(=O)*)cc3)cc2)cc1; Orn(4R-OH,5R-OH) = O=C([C@H](C[C@@H](O)[C@@H](O)N[*:3])N[*:1])[*:2]; hTyr(3S-OH,4S-OH) = N[C@H](C(=O)O)[C@H](O)[C@@H](O)c1ccc(O)cc1; Pro(3S-OH,4S-Me) = C[C@H]1CN[C@H](C(=O)O)[C@H]1O; Hyp = O=C(O)[C@@H]1C[C@@H](O)CN1

Settings: cited from earlier work
[1] = LTKB DILIrank category, ref Chen 2016
[2] = binary DILI call, ref Chen 2016

Structure (SMILES) | DILI severity category [1] | DILI +VE (5-8), DILI -VE (-4) [2] | other results
OC[C@H]1O[C@@H](O[C@@H]2[C@@H](CO)OC(O)(CO)[C@H]2O)[C@H](O)[C@@H](O)[C@H]1O (mixture of isomers) [lactulose] | – | – | DILI +VE (5-8), DILI -VE (-4) (binary in vivo human DILI call, ref Chen 2016): -VE; DILI severity category (human DILI, LTKB DILIrank category, ref Chen 2016): vNo-DILI-Concern
CCCCC(C)(O)C/C=C/[C@H]1[C@H](O)CC(=O)[C@@H]1CCCCCCC(=O)OC (mixture of isomers) [misoprostol] | – | – | DILI +VE (5-8), DILI -VE (-4) (in vivo): -VE; DILI severity category (in vivo): Ambiguous DILI-concern
O=C(O)CCCc1ccccc1 [4-phenylbutyric acid] | Ambiguous DILI-concern | -VE | –
Nc1nc(=O)c2c([nH]1)NC[C@H](CNc1ccc(C(=O)N[C@@H](CCC(=O)O)C(=O)O)cc1)N2C=O [Levoleucovorin] | – | – | DILI +VE (5-8), DILI -VE (-4) (in vivo): -VE; DILI severity category (in vivo): vNo-DILI-Concern
CC(=O)NCCCS(=O)(=O)O [acamprosate] | – | – | DILI +VE (5-8), DILI -VE (-4) (in vivo): +VE; DILI severity category (in vivo): vLess-DILI-Concern
CCCC(=O)Nc1ccc(OCC(O)CNC(C)C)c(C(C)=O)c1 (centres unmarked) [acebutolol] | vLess-DILI-Concern | – | –
O=C(O)COC(=O)Cc1ccccc1Nc1c(Cl)cccc1Cl [aceclofenac] | – | – | DILI +VE (5-8), DILI -VE (-4) (in vivo): +VE; DILI severity category (in vivo): vLess-DILI-Concern
CC(=O)NO [acetohydroxamic acid] | – | – | DILI +VE (5-8), DILI -VE (-4) (in vivo): -VE; DILI severity category (in vivo): Ambiguous DILI-concern
Nc1ncnc2c1ncn2CCOCP(=O)(O)O [adefovir] | vLess-DILI-Concern | – | –
CC(N)C(=O)OC(C)(C)Cc1ccc(Cl)cc1 (centres unmarked) [alaproclate] | vMost-DILI-Concern | – | –
C[C@H](N)C(=O)N[C@@H](C)C(=O)N[C@H]1[C@@H]2CN(c3nc4c(cc3F)c(=O)c(C(=O)O)cn4-c3ccc(F)cc3F)C[C@@H]21 [alatrofloxacin mesylate] | vMost-DILI-Concern | – | –
C=CCOc1ccc(CC(=O)O)cc1Cl [alclofenac] | vMost-DILI-Concern | – | –
COc1cc2nc(N(C)CCCNC(=O)C3CCCO3)nc(N)c2cc1OC (centres unmarked) [alfuzosin] | vLess-DILI-Concern | – | –
CN(C)CCc1c[nH]c2ccc(CS(=O)(=O)N3CCCC3)cc12 [almotriptan] | vNo-DILI-Concern | -VE | –
Cc1nnc2n1-c1ccc(Cl)cc1C(c1ccccc1)=NC2 [alprazolam] | – | – | DILI +VE (5-8), DILI -VE (-4) (in vivo): +VE; DILI severity category (in vivo): vLess-DILI-Concern
C[C@H]1CN(C[C@H](Cc2ccccc2)C(=O)NCC(=O)O)CC[C@@]1(C)c1cccc(O)c1 [alvimopan] | vNo-DILI-Concern | -VE | –
CC[N+](CC)(CCNC(=O)C(=O)NCC[N+](CC)(CC)Cc1ccccc1Cl)Cc1ccccc1Cl [ambenonium] | – | – | DILI +VE (5-8), DILI -VE (-4) (in vivo): -VE; DILI severity category (in vivo): vNo-DILI-Concern
NCCCNCCSP(=O)(O)O [amifostine] | vNo-DILI-Concern | -VE | –
NCCCCCC(=O)O [aminocaproic acid] | vNo-DILI-Concern | -VE | –
Nc1ccc(C(=O)NCC(=O)O)cc1 [aminohippurate] | – | – | DILI +VE (5-8), DILI -VE (-4) (in vivo): -VE; DILI severity category (in vivo): vNo-DILI-Concern
CCOC(=O)C1=C(COCCN)NC(C)=C(C(=O)OC)C1c1ccccc1Cl (centres unmarked) [amlodipine] | – | – | DILI +VE (5-8), DILI -VE (-4) (in vivo): +VE; DILI severity category (in vivo): vLess-DILI-Concern
CC(N)Cc1ccccc1 (centres unmarked) [amphetamine] | – | – | DILI +VE (5-8), DILI -VE (-4) (in vivo): +VE; DILI severity category (in vivo): vLess-DILI-Concern
CC(C)CN(C[C@@H](O)[C@H](Cc1ccccc1)NC(=O)O[C@H]1CCOC1)S(=O)(=O)c1ccc(N)cc1 [amprenavir] | Ambiguous DILI-concern | -VE | –
O=C1CN2Cc3c(ccc(Cl)c3Cl)N=C2N1 [anagrelide] | Ambiguous DILI-concern | -VE | –
CCCCCOc1ccc(-c2ccc(-c3ccc(C(=O)N[C@H]4C[C@@H](O)[C@@H](O)NC(=O)[C@@H]5[C@@H](O)[C@@H](C)CN5C(=O)[C@H]([C@@H](C)O)NC(=O)[C@H]([C@H](O)[C@@H](O)c5ccc(O)cc5)NC(=O)[C@@H]5C[C@@H](O)CN5C(=O)[C@H]([C@@H](C)O)NC4=O)cc3)cc2)cc1 [anidulafungin] ({pTerphenylCO(4''-OnC5H11)}-[Orn(4R-OH,5R-OH)]T[Hyp][hTyr(3S-OH,4S-OH)]T[Pro(3S-OH,4S-Me)]; lactam 1-C) | Ambiguous DILI-concern | -VE | –
CN1CCc2cccc3c2[C@H]1Cc1ccc(O)c(O)c1-3 [apomorphine] | vNo-DILI-Concern | -VE | –

Structure (SMILES) | DILI severity category [1] | DILI +VE (5-8), DILI -VE (-4) [2] | other results
NC(=O)C[S@@+]([O-])C(c1ccccc1)c1ccccc1 [armodafinil] | Ambiguous DILI-concern | -VE | –
CNCC[C@@H](Oc1ccccc1C)c1ccccc1 [atomoxetine] | vMost-DILI-Concern | – | –
O=C1C(O)=C([C@H]2CC[C@H](c3ccc(Cl)cc3)CC2)C(=O)c2ccccc21 [atovaquone] | Ambiguous DILI-concern | -VE | –
COc1ccc(CC2c3cc(OC)c(OC)cc3CC[N+]2(C)CCC(=O)OCCCCCOC(=O)CC[N+]2(C)CCc3cc(OC)c(OC)cc3C2Cc2ccc(OC)c(OC)c2)cc1OC (centres unmarked) [atracurium] | vNo-DILI-Concern | -VE | –
CC(=O)OC[C@H]1O[C@@H]([S-])[C@H](OC(C)=O)[C@@H](OC(C)=O)[C@@H]1OC(C)=O.CCP(CC)CC.[Au+] [auranofin] | vLess-DILI-Concern | – | –
Nc1ncn([C@@H]2O[C@H](CO)[C@@H](O)[C@H]2O)c(=O)n1 [azacitidine] | Ambiguous DILI-concern | -VE | –
O=C(O)CCNC(=O)c1ccc(/N=N/c2ccc(O)c(C(=O)O)c2)cc1 [balsalazide] | Ambiguous DILI-concern | -VE | –
Cn1c(CCCC(=O)O)nc2cc(N(CCCl)CCCl)ccc21 [bendamustine] | – | – | DILI +VE (5-8), DILI -VE (-4) (in vivo): -VE; DILI severity category (in vivo): vNo-DILI-Concern
O=C(O)COc1nn(Cc2ccccc2)c2ccccc12 [bendazac] | vMost-DILI-Concern | – | –
NS(=O)(=O)c1cc2c(cc1C(F)(F)F)NC(Cc1ccccc1)NS2(=O)=O (centres unmarked) [bendroflumethiazide] | vLess-DILI-Concern | – | –
CCCCNc1ccc(C(=O)OCCOCCOCCOCCOCCOCCOCCOCCOCCOC)cc1 [benzonatate] | vLess-DILI-Concern | – | –
C[C@@H](Cc1ccccc1)N(C)Cc1ccccc1 [benzphetamine] | – | – | DILI +VE (5-8), DILI -VE (-4) (in vivo): -VE; DILI severity category (in vivo): vNo-DILI-Concern
CC(C)NCC(O)COc1ccc(CCOCC2CC2)cc1 (centres unmarked) [betaxolol] | Ambiguous DILI-concern | -VE | –
CC(C[N+](C)(C)C)OC(N)=O (centres unmarked) [bethanechol] | vNo-DILI-Concern | -VE | –
CC(C)C[C@H](NC(=O)[C@H](Cc1ccccc1)NC(=O)c1cnccn1)B(O)O [bortezomib] | vMost-DILI-Concern | – | –
CC(C)C[C@H]1C(=O)N2CCC[C@H]2[C@]2(O)O[C@](NC(=O)[C@@H]3C=C4c5cccc6[nH]c(Br)c(c56)C[C@H]4N(C)C3)(C(C)C)C(=O)N12 [bromocriptine] | vLess-DILI-Concern | – | –
CCC(C)C1(CC)C(=O)NC(=O)NC1=O (centres unmarked) [butabarbital] | Ambiguous DILI-concern | -VE | –
C=CCN1C[C@H](C(=O)N(CCCN(C)C)C(=O)NCC)C[C@@H]2c3cccc4[nH]cc(c34)C[C@H]21 [cabergoline] | vNo-DILI-Concern | -VE | –
CC(C)C[C@H](NC(=O)[C@H](CCCCN)NC(=O)CNC(=O)[C@H](CC(C)C)NC(=O)[C@@H](NC(=O)[C@@H]1CSSC[C@H](N)C(=O)N[C@@H](CO)C(=O)N[C@@H](CC(N)=O)C(=O)N[C@@H](CC(C)C)C(=O)N[C@@H](CO)C(=O)N[C@@H]([C@@H](C)O)C(=O)N1)C(C)C)C(=O)N[C@@H](CO)C(=O)N[C@@H](CCC(N)=O)C(=O)N[C@@H](CCC(=O)O)C(=O)N[C@@H](CC(C)C)C(=O)N[C@@H](Cc1c[nH]cn1)C(=O)N[C@@H](CCCCN)C(=O)N[C@@H](CC(C)C)C(=O)N[C@@H](CCC(N)=O)C(=O)N[C@H](C(=O)N[C@@H](Cc1ccc(O)cc1)C(=O)N1CCC[C@H]1C(=O)N[C@@H](CCCNC(=N)N)C(=O)N[C@H](C(=O)N[C@@H](CC(N)=O)C(=O)N[C@H](C(=O)NCC(=O)N[C@@H](CO)C(=O)NCC(=O)N[C@H](C(=O)N1CCC[C@H]1C(N)=O)[C@@H](C)O)[C@@H](C)O)[C@@H](C)O)[C@@H](C)O [calcitonin salmon] | – | – | DILI +VE (5-8), DILI -VE (-4) (in vivo): -VE; DILI severity category (in vivo): vNo-DILI-Concern
C=C1/C(=C\C=C2/CCC[C@]3(C)[C@@H]([C@H](C)CCCC(C)(C)O)CC[C@@H]23)C[C@@H](O)C[C@@H]1O [calcitriol] | vNo-DILI-Concern | -VE | –
CC(=O)[O-].CC(=O)[O-].[Ca+2] [calcium acetate] | – | – | DILI +VE (5-8), DILI -VE (-4) (in vivo): -VE; DILI severity category (in vivo): vNo-DILI-Concern
CCCCCOC(=O)Nc1nc(=O)n([C@@H]2O[C@H](C)[C@@H](O)[C@H]2O)cc1F [capecitabine] | Ambiguous DILI-concern | -VE | –
CC1(C)S[C@@H]2[C@H](NC(=O)C(C(=O)O)c3ccccc3)C(=O)N2[C@H]1C(=O)O (some centres unmarked) [carbenicillin] | vLess-DILI-Concern | – | –
CN(C)CCOC(c1ccc(Cl)cc1)c1ccccn1 (centres unmarked) [carbinoxamine] | vNo-DILI-Concern | -VE | –
CCCCC[C@](C)(O)/C=C/[C@@H]1[C@@H](C/C=C\CCCC(=O)O)[C@@H](O)C[C@H]1O [carboprost tromethamine] | vNo-DILI-Concern | -VE | –
COc1ccccc1OCCNCC(O)COc1cccc2[nH]c3ccccc3c12 (centres unmarked) [carvedilol] | vLess-DILI-Concern | – | –
